Experimental findings from patent US7566712B2, “Biaryl piperazinyl-pyridine analogues” (Neurogen Corporation, priority 2003, dated 2009) are described below.

SMILES strings stand for the structures.

The assay deals with T1, human capsaicin receptor (Homo sapiens, UniProt Q8NER1).
T1 construct: pBK-CMV expression construct encoding the full length human capsaicin receptor; expressed in transfected cells
Kind of assay: Calcium mobilization assay, determination of antagonist activity (Example 6). The format is cell-based. To be noted: Table II; IC50 determined as described in Example 6. In a few lines:
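Antagonism measured as inhibition of capsaicin-evoked (final concentration = EC50, from an 8-point 1 nM–3 μM curve) Fluo-3 calcium signal in stable hVR1-HEK293 cells. Test compounds at 1–5 μM final, 0.5–6 h dark preincubation at room temperature. IC50 = concentration giving 50% reduction versus agonist-only response.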

T1 sequence (Q8NER1 whole entry): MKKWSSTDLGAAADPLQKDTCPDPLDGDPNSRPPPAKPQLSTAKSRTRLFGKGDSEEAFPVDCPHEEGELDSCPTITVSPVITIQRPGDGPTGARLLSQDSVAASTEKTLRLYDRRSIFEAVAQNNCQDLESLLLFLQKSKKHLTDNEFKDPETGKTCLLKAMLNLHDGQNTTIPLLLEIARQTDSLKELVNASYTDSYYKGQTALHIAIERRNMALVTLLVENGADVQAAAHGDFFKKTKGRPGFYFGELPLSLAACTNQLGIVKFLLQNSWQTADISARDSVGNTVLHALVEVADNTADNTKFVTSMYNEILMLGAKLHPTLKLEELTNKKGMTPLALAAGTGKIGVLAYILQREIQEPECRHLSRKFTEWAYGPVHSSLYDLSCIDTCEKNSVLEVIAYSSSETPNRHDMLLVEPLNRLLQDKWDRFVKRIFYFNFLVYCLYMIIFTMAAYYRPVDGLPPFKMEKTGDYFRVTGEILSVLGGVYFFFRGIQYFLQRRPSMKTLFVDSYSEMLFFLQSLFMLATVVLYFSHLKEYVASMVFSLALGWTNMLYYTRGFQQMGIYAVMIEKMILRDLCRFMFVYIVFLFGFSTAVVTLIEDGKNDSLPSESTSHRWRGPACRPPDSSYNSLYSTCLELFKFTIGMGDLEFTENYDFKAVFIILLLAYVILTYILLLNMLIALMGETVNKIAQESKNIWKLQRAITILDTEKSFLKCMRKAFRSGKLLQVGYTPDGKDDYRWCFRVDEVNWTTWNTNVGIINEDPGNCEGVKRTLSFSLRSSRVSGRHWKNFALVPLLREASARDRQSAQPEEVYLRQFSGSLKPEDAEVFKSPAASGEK

`COc1cccc(-c2cc(N3CCN(c4ncccc4C#N)C[C@H]3C)nc(N3CCOCC3)n2)c1` [Example 523, 2-{(3R)-4-[6-(3-methoxyphenyl)-2-morpholin-4-ylpyrimidin-4-yl]-3-methylpiperazin-1-yl}nicotinonitrile]: the 50% inhibitory concentration (IC50) was at most 1000 nM.

With `COc1cccc(-c2cc(N3CCN(c4ncccc4C)C[C@H]3C)nc(N3CCOCC3)n2)c1` [Example 524, 4-{4-(3-methoxyphenyl)-6-[(2R)-2-methyl-4-(3-methylpyridin-2-yl)piperazin-1-yl]pyrimidin-2-yl}morpholine], the IC50 was at most 1000 nM.

For the compound `COc1cccc(-c2cc(N3CCN(c4ncccc4C(F)(F)F)C[C@H]3C)nc(N3CCOCC3)n2)c1` [Example 525, 4-(4-(3-methoxyphenyl)-6-{(2R)-2-methyl-4-[3-(trifluoromethyl)pyridin-2-yl]piperazin-1-yl}pyrimidin-2-yl)morpholine], the IC50 is at most 1000 nM.

As for `COc1cccc(-c2cc(N3CCN(c4ncccc4Cl)C[C@H]3C)nc(N3CCOCC3)n2)c1` [Example 526, 4-[4-[(2R)-4-(3-chloropyridin-2-yl)-2-methylpiperazin-1-yl]-6-(3-methoxyphenyl)pyrimidin-2-yl]morpholine], the 50% inhibitory concentration (IC50) was at most 1000 nM.

On to `Cc1cccnc1N1CCN(c2cc(-c3ccc(OC(F)(F)F)cc3)nc(N3CCOCC3)n2)[C@H](C)C1` [Example 527, 4{4[(2R)-2-methyl-4-(3-methylpyridin-2-yl)piperazin-1-yl]-6-[4-(trifluoromethoxy)phenyl]pyrimidin-2-yl}morpholine], for which the IC50 is at most 1000 nM.

In the case of `C[C@@H]1CN(c2ncccc2C(F)(F)F)CCN1c1cc(-c2ccc(OC(F)(F)F)cc2)nc(N2CCOCC2)n1` [Example 528, 4-{4-{(2R)-2-methyl-4-(3-(trifluoromethyl)pyridin-2-yl]piperazin-1-yl}-6-[4-(trifluoromethoxy)phenyl]pyrimidin-2-yl}morpholine], the concentration for half-maximal inhibition (IC50) was at most 1000 nM.

`CCOc1cccc(-c2cc(N3CCN(c4ncccc4C)C[C@H]3C)nc(N3CCOCC3)n2)c1` [Example 529, 4-{4-(3-ethoxyphenyl)-6-[(2R)-2-methyl-4-(3-methylpyridin-2-yl)piperazin-1-yl]pyrimidin-2-yl}morpholine]: the IC50 is at most 1000 nM.

For `CCOc1cccc(-c2cc(N3CCN(c4ncccc4C(F)(F)F)C[C@H]3C)nc(N3CCOCC3)n2)c1` [Example 530, 4-(4-(3-ethoxyphenyl)-6-{(2R)-2-methyl-4-[3-(trifluoromethyl)pyridin-2-yl]piperazin-1-yl}pyrimidin-2-yl)morpholine], the half-inhibitory concentration (IC50) was at most 1000 nM.

For the compound `CCOc1cccc(-c2cc(N3CCN(c4ncccc4Cl)C[C@H]3C)nc(N3CCOCC3)n2)c1` [Example 531, 4-[4-[(2R)-4-(3-chloropyridin-2-yl)-2-methylpiperazin-1-yl]-6-(3-ethoxyphenyl)pyrimidin-2-yl]morpholine], the IC50 was at most 1000 nM.

Consider `C[C@@H]1CN(c2ncccc2C#N)CCN1c1cc(-c2cccc(OC(F)(F)F)c2)nc(N2CCOCC2)n1` [Example 532, 2-((3R)-3-methyl-4-{2-morpholin-4-yl-6-[3-(trifluoromethoxy)phenyl]pyrimidin-4-yl}piperazin-1-yl)nicotinonitrile], for which the IC50 is at most 1000 nM.

`Cc1cccnc1N1CCN(c2cc(-c3cccc(OC(F)(F)F)c3)nc(N3CCOCC3)n2)[C@H](C)C1` [Example 533, 4-{4-[(2R)-2-methyl-4-(3-methylpyridin-2-yl)piperazin-1-yl]-6-[3-(trifluoromethoxy)phenyl]pyrimidin-2-yl}morpholine]: the half-maximal inhibitory concentration (IC50) is at most 1000 nM.

`C[C@@H]1CN(c2ncccc2C(F)(F)F)CCN1c1cc(-c2cccc(OC(F)(F)F)c2)nc(N2CCOCC2)n1` [Example 534, 4-{4-{(2R)-2-methyl-4-[3-(trifluoromethyl)pyridin-2-yl]piperazin-1-yl}-6-[3-(trifluoromethoxy)phenyl]pyrimidin-2-yl}morpholine]: the IC50 was at most 1000 nM.

In the case of `C[C@@H]1CN(c2ncccc2Cl)CCN1c1cc(-c2cccc(OC(F)(F)F)c2)nc(N2CCOCC2)n1` [Example 535, 4-{4-[(2R)-4-(3-chloropyridin-2-yl)-2-methylpiperazin-1-yl]-6-[3-(trifluoromethoxy)phenyl]pyrimidin-2-yl}morpholine], the half-inhibitory concentration (IC50) was at most 1000 nM.

As for `CSc1cccc(-c2cc(N3CCN(c4ncccc4C#N)C[C@H]3C)nc(N3CCOCC3)n2)c1` [Example 536, 2-((3R)-3-methyl-4-{6-[3-(methylthio)phenyl]-2-morpholin-4-ylpyrimidin-4-yl}piperazin-1-yl)nicotinonitrile], the IC50 is at most 1000 nM.

In the case of `CSc1cccc(-c2cc(N3CCN(c4ncccc4C)C[C@H]3C)nc(N3CCOCC3)n2)c1` [Example 537, 4-{4-[(2R)-2-methyl-4-(3-methylpyridin-2-yl)piperazin-1-yl]-6-[3-(methylthio)phenyl]pyrimidin-2-yl}morpholine], the IC50 was at most 1000 nM.

For `CSc1cccc(-c2cc(N3CCN(c4ncccc4C(F)(F)F)C[C@H]3C)nc(N3CCOCC3)n2)c1` [Example 538, 4-(4-[3-(methylthio)phenyl]-6-{(2R)-2-methyl-4-[3-(trifluoromethyl)pyridin-2-yl]piperazin-1-yl}pyrimidin-2-yl)morpholine], the 50% inhibitory concentration (IC50) is at most 1000 nM.

Regarding `CSc1cccc(-c2cc(N3CCN(c4ncccc4Cl)C[C@H]3C)nc(N3CCOCC3)n2)c1` [Example 539, 4-{4-[(2R)-4-(3-chloropyridin-2-yl)-2-methylpiperazin-1-yl]-6-[3-(methylthio)phenyl]pyrimidin-2-yl}morpholine], the IC50 was at most 1000 nM.

Take `COc1ccc(-c2cc(N3CCN(c4ncccc4C)C[C@H]3C)nc(N3CCOCC3)n2)cc1F` [Example 540, 4-{4-(3-fluoro-4-methoxyphenyl)-6-[(2R)-2-methyl-4-(3-methylpyridin-2-yl)piperazin-1-yl]pyrimidin-2-yl}morpholine]: the half-inhibitory concentration (IC50) was at most 1000 nM.

As to `COc1ccc(-c2cc(N3CCN(c4ncccc4C(F)(F)F)C[C@H]3C)nc(N3CCOCC3)n2)cc1F` [Example 541, 4-(4-(3-fluoro-4-methoxyphenyi)-6-{(2R)-2-methyl-4-[3-(trifluoromethyl)pyridin-2-yl]piperazin-1-yl}pyrimidin-2-yl)morpholine], the 50% inhibitory concentration (IC50) was at most 1000 nM.

In the case of `COc1ccc(-c2cc(N3CCN(c4ncccc4Cl)C[C@H]3C)nc(N3CCOCC3)n2)cc1F` [Example 542, 4-[4-[(2R)-4-(3-chloropyridin-2-yl)-2-methylpiperazin-1-yl]-6-(3-fluoro-4-methoxyphenyl)pyrimidin-2-yl]morpholine], the IC50 is at most 1000 nM.

Turning to `Cc1cccnc1N1CCN(c2cc(-c3cccc(OC(C)C)c3)nc(N3CCOCC3)n2)[C@H](C)C1` [Example 543, 4{4-(3-isopropoxyphenyl)-6-[(2R)-2-methyl-4-(3-methylpyridin-2-yl)piperazin-1-yl]pyrimidin-2-yl}morpholine], the IC50 was at most 1000 nM.

On to `CC(C)Oc1cccc(-c2cc(N3CCN(c4ncccc4Cl)C[C@H]3C)nc(N3CCOCC3)n2)c1` [Example 544, 4-[4-[(2R)-4-(3 chloropyridin-2-yl)-2-methylpiperazin-1-yl]-6-(3-isopropoxyphenyl)pyrimidin-2-yl]morpholine], for which the IC50 is at most 1000 nM.
